The nature of series [1]: Colour difference of iron fortified strawberry-banana yoghurt after flash pasteurization versus yoghurt with no iron salts (CIELAB). In kind it is physicochemical. To be noted: approx. 0.8 mg iron per 100 g, pasteurized at 105° C. for 2 minutes. As for the experimental part: Commercial yoghurt, Nestlé Jogolino™ Strawberry/Banana yoghurt containing 15% banana puree and 10% strawberry puree was iron fortified by the addition of different iron salts to 5 kg yoghurt as reported in the table below. The amounts were chosen to provide approximately 0.8 mg iron per 100 g yoghurt. […] Colour measurements were performed in 1×1 cm polystyrene cuvettes using an X-Rite ColorEye 7000A colorimeter. The colorimeter was set up with a D65 light source, 10 degree observer angle and with specular component included. The colour difference between the yoghurt with no iron salts and the iron fortified yoghurt was measured for each iron salt and expressed as ΔEab* using the CIELAB colour scale.

Series [2] in a line: Colour change of fortified pasteurized yoghurts on storage at 37° C. versus colour immediately after pasteurization (CIELAB). In kind it is physicochemical. As to conditions: stored at 37° C.; for ΔEab* day 7: day 7, versus colour immediately after pasteurization; for ΔEab* day 30: day 30, versus colour immediately after pasteurization; for ΔEab* day 60: day 60, versus colour immediately after pasteurization; for ΔEab* day 120: day 120, versus colour immediately after pasteurization.

From US20160309764A1, “FOOD COMPOSITION COMPRISING FERROUS PICOLINATE” (NESTEC S.A., priority 2013, published 2016) come the findings set out here.

“Also recorded” adds a separate entry of the source.

As for `O=S(=O)([O-])[O-].[Fe+2]` [FeSO4 × H2O, Ferrous sulphate], the “ΔEab*” value in series [1] is on record as 4.74. In addition, in series [2], the “ΔEab* day 7” value is listed as 0.78, the “ΔEab* day 30” value was determined as 3.27, the “ΔEab* day 60” value came to 5.91 and the “ΔEab* day 120” value was 10.34. Besides, the “ΔEab* day 30” value in series [2] (listed as ferrous sulphate) is recorded as “much greater colour changes”.
Consider `O=C([O-])CN(CCN(CC(=O)[O-])CC(=O)[O-])CC(=O)[O-].[Fe+3].[Na+]` [NaFeEDTA × H2O, ferric sodium EDTA], for which, in series [1], the “ΔEab*” value is 3.11. For the same molecule, in series [2], the “ΔEab* day 7” value is listed as 0.96, the “ΔEab* day 30” value was found to be 4.16, the “ΔEab* day 60” value came to 6.93 and the “ΔEab* day 120” value is 9.37.
For the molecule Ferrous picolinate, in series [1], the “ΔEab*” value is given as 1.28. Moreover, in series [1] (listed as ferrous picolinate), the “ΔEab*” value is given as “closer in colour to unfortified yoghurts; also recorded: closest colour to the yoghurt with no added iron”. Moreover, in series [2], the “ΔEab* day 7” value is reported as 0.51, the “ΔEab* day 30” value worked out at 2.18, the “ΔEab* day 60” value worked out at 4.66 and the “ΔEab* day 120” value stood at 8.19. Besides, the “colour change over time” value in series [2] (up to 120 days, compared with the other iron salts) was “smaller than the yoghurts fortified by the other iron salts”.
